The values below come from US20220347175A1, “PYRIDAZINONE DERIVATIVE” (Sumitomo Dainippon Pharma Co., Ltd., priority 2018, published 2022).

For assay [1], the target named is T1, human Nav1.5 (Homo sapiens, UniProt Q14524).
T1 construct: expressed in transfected cells; host or cells: CHO-K1 (T-REx System, ThermoFisher Scientific)
Description: Amplification of Nav1.5-derived voltage-dependent sodium current (Nav1.5 current), cell line stably expressing human Nav1.5, automated patch clamp. The class given is cell-based. On the technique in general: In patch-clamp work, channel activity is measured electrically.

For assay [2], the target named is T2, human Nav1.1 (Homo sapiens, UniProt P35498).
T2 construct: host or cells: HEK293
Description: Amplification of Nav1.1-derived voltage-dependent sodium current (Nav1.1 current), cell line stably expressing human Nav1.1, automated patch clamp. In kind it is cell-based. In a few lines: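 Amplification rate (%) is 100 × post-compound/pre-compound Nav1.1 peak current or AUC, minus 100. Ramp-evoked sodium currents were recorded by automated patch clamp in a human Nav1.1 HEK293 stable line, restricted to cells exceeding 500 pA, with compounds added in extracellular solution containing 1% DMSO.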

Setting [3] is: compound 1 μmol/L, CHO-K1 stably expressing human Nav1.5.
[4] abbreviates: compound 1 μmol/L, HEK293 stably expressing human Nav1.1.
Setting [5] is: 10 μmol/L compound, change of the area under the curve of Nav1.5 current (Test Result 1).
The mark [6] stands for this setting: 10 μmol/L compound, change of the area under the curve of Nav1.1 current (Test Result 1).
Where [7] appears, read: 10 μmol/L compound, change of the area under the curve of Nav1.5 current (Test Result 1), read-out: Nav1.5 current amplification rate (%).
The mark [8] stands for this setting: 10 μmol/L compound, change of the area under the curve of Nav1.1 current (Test Result 1), read-out: Nav1.1 current amplification rate (%).
Setting [9] is: compound 3 μmol/L, CHO-K1 stably expressing human Nav1.5.
Setting [10] is: compound 3 μmol/L, HEK293 stably expressing human Nav1.1.

T1 sequence (Q14524 1-2015 isoform Q14524-2): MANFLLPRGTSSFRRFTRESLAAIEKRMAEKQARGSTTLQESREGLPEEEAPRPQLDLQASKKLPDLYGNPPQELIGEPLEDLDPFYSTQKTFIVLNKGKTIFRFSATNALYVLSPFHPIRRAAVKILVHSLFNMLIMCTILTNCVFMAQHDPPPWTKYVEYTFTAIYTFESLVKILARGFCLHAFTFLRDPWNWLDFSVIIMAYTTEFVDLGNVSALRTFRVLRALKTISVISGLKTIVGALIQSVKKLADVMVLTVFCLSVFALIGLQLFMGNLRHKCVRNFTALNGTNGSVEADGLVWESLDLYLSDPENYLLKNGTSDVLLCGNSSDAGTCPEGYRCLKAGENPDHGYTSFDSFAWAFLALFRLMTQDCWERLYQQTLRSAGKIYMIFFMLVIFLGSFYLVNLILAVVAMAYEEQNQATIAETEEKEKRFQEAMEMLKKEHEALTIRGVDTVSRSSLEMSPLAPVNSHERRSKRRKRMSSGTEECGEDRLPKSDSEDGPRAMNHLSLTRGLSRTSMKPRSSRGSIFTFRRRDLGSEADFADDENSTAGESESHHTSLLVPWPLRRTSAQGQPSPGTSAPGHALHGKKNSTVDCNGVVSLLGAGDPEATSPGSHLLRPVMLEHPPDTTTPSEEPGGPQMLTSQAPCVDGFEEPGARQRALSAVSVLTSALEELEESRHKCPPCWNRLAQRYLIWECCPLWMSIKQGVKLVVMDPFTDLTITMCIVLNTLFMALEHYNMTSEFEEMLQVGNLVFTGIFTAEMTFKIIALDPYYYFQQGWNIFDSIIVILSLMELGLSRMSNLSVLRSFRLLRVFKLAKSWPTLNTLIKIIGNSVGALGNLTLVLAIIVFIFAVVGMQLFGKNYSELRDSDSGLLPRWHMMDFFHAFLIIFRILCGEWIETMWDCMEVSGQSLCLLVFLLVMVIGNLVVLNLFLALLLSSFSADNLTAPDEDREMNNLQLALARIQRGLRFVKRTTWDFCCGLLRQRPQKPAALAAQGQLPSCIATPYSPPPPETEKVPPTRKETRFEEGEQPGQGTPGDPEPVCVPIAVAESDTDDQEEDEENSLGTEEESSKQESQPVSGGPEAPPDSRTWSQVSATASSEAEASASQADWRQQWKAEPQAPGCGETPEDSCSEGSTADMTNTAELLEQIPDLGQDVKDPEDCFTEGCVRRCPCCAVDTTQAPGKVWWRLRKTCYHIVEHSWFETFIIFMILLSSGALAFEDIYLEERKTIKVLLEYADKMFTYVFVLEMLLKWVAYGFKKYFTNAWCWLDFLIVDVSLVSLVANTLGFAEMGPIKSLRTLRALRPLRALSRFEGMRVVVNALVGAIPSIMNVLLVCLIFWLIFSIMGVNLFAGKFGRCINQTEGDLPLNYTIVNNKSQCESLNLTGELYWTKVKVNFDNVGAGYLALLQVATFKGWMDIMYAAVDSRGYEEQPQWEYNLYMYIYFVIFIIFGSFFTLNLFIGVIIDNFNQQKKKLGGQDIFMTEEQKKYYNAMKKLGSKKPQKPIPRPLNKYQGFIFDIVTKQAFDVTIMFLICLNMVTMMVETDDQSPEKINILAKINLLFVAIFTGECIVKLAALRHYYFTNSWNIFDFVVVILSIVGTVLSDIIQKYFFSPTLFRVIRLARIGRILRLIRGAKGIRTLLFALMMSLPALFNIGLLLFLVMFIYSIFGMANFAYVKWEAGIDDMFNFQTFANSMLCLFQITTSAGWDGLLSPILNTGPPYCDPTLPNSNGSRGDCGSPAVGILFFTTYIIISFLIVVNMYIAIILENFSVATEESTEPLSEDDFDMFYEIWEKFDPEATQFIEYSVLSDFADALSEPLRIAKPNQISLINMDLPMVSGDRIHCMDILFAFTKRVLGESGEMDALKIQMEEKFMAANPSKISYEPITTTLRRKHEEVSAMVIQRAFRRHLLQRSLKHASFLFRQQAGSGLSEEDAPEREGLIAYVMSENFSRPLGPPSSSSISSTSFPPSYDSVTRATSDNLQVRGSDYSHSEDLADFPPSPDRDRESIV

As to `CC1CC=C(c2ccc(=O)n(CC(=O)Nc3ccc4ncnn4c3)n2)CC1` (racemic) [Example 339], the “Nav1.5 current amplification rate (%)” value in assay [1] (setting [3]) is listed as 15%. Further, in assay [2] (setting [4]), the “Nav1.1 current amplification rate (%)” value was 127%.
On to `CC1CC=C(c2ccc(=O)n(CC(=O)N3CCc4c(CNC5COC5)cccc43)n2)CC1` (racemic) [Example 313], for which the “Nav1.5 current amplification rate (%)” value in assay [1] (setting [3]) is given as 133%. For the same compound, the “Nav1.1 current amplification rate (%)” value in assay [2] (setting [4]) is on record as 84%.
Turning to `CC1CC=C(c2ccc(=O)n(CC(=O)Nc3ccnc(N4CCOCC4)c3F)n2)CC1` (racemic) [Example 383], the “Nav1.5 current amplification rate (%)” value in assay [1] (setting [3]) is on record as 51%. In assay [2] (setting [4]), the “Nav1.1 current amplification rate (%)” value was 84%.
Take `Cc1noc2cc(NC(=O)Cn3nc(N4CCC(C)CC4)ccc3=O)ccc12` [Example 84]: the “Nav1.5 current amplification rate (%)” value in assay [1] (setting [5]) is on record as 123%. The “Nav1.1 current amplification rate (%)” value in assay [2] (setting [6]) is on record as 315%.
Turning to `O=C(Cn1nc(N2CCC3(CCCC3)C2)ccc1=O)Nc1ccc2ocnc2c1` [Example 122], the activation at 10 µM was found to be 18% in assay [1] (setting [7]) and 173% in assay [2] (setting [8]).
In the case of `O=C(Cn1nc(N2CCC3(CCC3)CC2)ccc1=O)Nc1ccn2ccnc2c1` [Example 168], the activation at 10 µM in assay [1] (setting [7]) was 23%; in assay [2] (setting [8]), 205%.
Consider `CC1CC=C(c2ccc(=O)n(CC(=O)N3CCN(c4cccnc4)CC3)n2)CC1` (racemic) [Example 395], for which the “Nav1.5 current amplification rate (%)” value in assay [1] (setting [5]) is 15%. For the same compound, the “Nav1.1 current amplification rate (%)” value in assay [2] (setting [6]) is listed as 343%.
`C[C@@H]1CC=C(c2ccc(=O)n(CC(=O)Nc3ccc4ncnn4c3)n2)CC1` [Example 539, 2-{3-[(4S)-4-methylcyclohex-1-en-1-yl]-6-oxopyridazin-1(6H)-yl}-N-([1,2,4]triazolo[1,5-a]pyridin-6-yl)acetamide]: the activation at 1 µM in assay [1] (compound 1 μmol/L, CHO-K1 stably expressing human Nav1.5, read-out: Nav1.5 current amplification rate (%)) stood at 11%; in assay [2] (compound 1 μmol/L, HEK293 stably expressing human Nav1.1, read-out: Nav1.1 current amplification rate (%)) it was 80%.
Turning to `Cc1cc(=O)n(CC(=O)Nc2ccn3ccnc3c2)nc1C1=CCC(C)(C)CC1` [Example 461], in assay [1] (setting [5]), the “Nav1.5 current amplification rate (%)” value is listed as 50%. The “Nav1.1 current amplification rate (%)” value in assay [2] (setting [6]) was found to be 337%.
For `O=C(Cn1nc(C2=CCC3(CC2)CC3(F)F)ccc1=O)N1CCc2c(N3CCOCC3)cccc21` (racemic) [Example 478], the “Nav1.5 current amplification rate (%)” value in assay [1] (setting [9]) was determined as 23%. Moreover, the “Nav1.1 current amplification rate (%)” value in assay [2] (setting [10]) worked out at 345%.
With `CC1CC=C(c2ccc(=O)n(CC(=O)N3CCc4c(CN(C)C5COC5)cccc43)n2)CC1` (racemic) [Example 276], the “Nav1.5 current amplification rate (%)” value in assay [1] (setting [3]) was 47%. Also, the “Nav1.1 current amplification rate (%)” value in assay [2] (setting [4]) is recorded as 207%.
On to `CC1CC=C(c2ccc(=O)n(CC(=O)N3CCc4cc(N5CCOCC5)ccc43)n2)CC1` (racemic) [Example 246], for which the “Nav1.5 current amplification rate (%)” value in assay [1] (setting [5]) stood at 145%. In assay [2] (setting [6]), the “Nav1.1 current amplification rate (%)” value turned out to be 136%.
`COCc1nc2cc(NC(=O)Cn3nc(C4=CCC(C)CC4)ccc3=O)ccc2o1` (racemic) [Example 325]: the “Nav1.5 current amplification rate (%)” value in assay [1] (setting [9]) turned out to be 10%. In assay [2] (setting [10]), the “Nav1.1 current amplification rate (%)” value turned out to be 233%.
With `CC1(C)CC=C(c2ccc(=O)n(CC(=O)N3CCc4c(OC5COC5)cccc43)n2)CC1` [Example 436], the “Nav1.5 current amplification rate (%)” value in assay [1] (setting [5]) was 31%. In assay [2] (setting [6]), the “Nav1.1 current amplification rate (%)” value was 226%.
In the same order, the values of `COc1cc(-c2cc(Cl)cs2)nn(CC(=O)N2CCc3c(N4CCOCC4)cccc32)c1=O` [Example 479] are 135% and 420%.
As to `CC1CC=C(c2ccc(=O)n(CC(=O)N3CCOc4c(-c5cn[nH]c5)cccc43)n2)CC1` (racemic) [Example 290], in assay [1] (setting [9]), the “Nav1.5 current amplification rate (%)” value was determined as 4.5%. The “Nav1.1 current amplification rate (%)” value in assay [2] (setting [10]) was 94%.
For `Cc1nccn1-c1ccc(NC(=O)Cn2nc(C3=CCC(C)CC3)ccc2=O)cc1` (racemic) [Example 361], the “Nav1.5 current amplification rate (%)” value in assay [1] (setting [3]) is on record as 112%. For the same compound, in assay [2] (setting [4]), the “Nav1.1 current amplification rate (%)” value was 101%.
Consider `CC1CCN(c2ccc(=O)n(CC(=O)Nc3ccn4c(Br)cnc4c3)n2)CC1` [Example 173], for which the activation at 10 µM in assay [1] (setting [7]) amounted to 47%; in assay [2] (setting [8]) it was 112%.
With `CC1CCN(c2ccc(=O)n(CC(=O)Nc3ccc(C(=O)N4CCCC4)nc3)n2)CC1` [Example 217], the results for the activation at 10 µM in assay [1] (setting [7]) and in assay [2] (setting [8]) were 1% and 25%, respectively.
Regarding `CN(C)c1cc(N2CCC(C)(C)CC2)nn(CC(=O)Nc2ccn3ccnc3c2)c1=O` [Example 211], the results for the activation at 10 µM in assay [1] (setting [7]) and in assay [2] (setting [8]) were 8% and 212%, respectively.
As to `CC1CC=C(c2ccc(=O)n(CC(=O)N3CCc4c(C5CN(C6CCOC6)C5)cccc43)n2)CC1` (racemic) [Example 305], in assay [1] (setting [9]), the “Nav1.5 current amplification rate (%)” value is 117%. Moreover, the “Nav1.1 current amplification rate (%)” value in assay [2] (setting [10]) amounted to 314%.
For `Cc1cc(N2CCC(C)CC2)nn(CC(=O)Nc2ccc3ocnc3c2)c1=O` [Example 200], the activation at 10 µM in assay [1] (setting [7]) came out at 5%; in assay [2] (setting [8]) it was 103%.
On to `COc1cc(C2=CCC(C(F)(F)F)CC2)nn(CC(=O)Nc2ccn3ccnc3c2)c1=O` (centres unmarked) [Example 462], for which the “Nav1.5 current amplification rate (%)” value in assay [1] (setting [5]) came to 5%. Further, the “Nav1.1 current amplification rate (%)” value in assay [2] (setting [6]) is 124%.
Turning to `COc1nc2cc(NC(=O)Cn3nc(C4=CCC(C)(C)CC4)c(OC)cc3=O)cc(F)c2o1` [Example 494], the activation at 3 µM in assay [1] (compound 3 μmol/L, CHO-K1 stably expressing human Nav1.5, read-out: Nav1.5 current amplification rate (%)) came out at 26%; in assay [2] (compound 3 μmol/L, HEK293 stably expressing human Nav1.1, read-out: Nav1.1 current amplification rate (%)), 255%.
Turning to `CC1CCN(c2ccc(=O)n(CC(=O)Nc3ccc4oc(N(C)C)nc4c3)n2)CC1` [Example 91], in assay [1] (setting [5]), the “Nav1.5 current amplification rate (%)” value is on record as 9%. Further, the “Nav1.1 current amplification rate (%)” value in assay [2] (setting [6]) is recorded as 93%.
With `CC1CC=C(c2ccc(=O)n(CC(=O)Nc3ccc4oc(C(F)F)nc4c3)n2)CC1` (racemic) [Example 243], the “Nav1.5 current amplification rate (%)” value in assay [1] (setting [5]) is on record as 19%. Further, the “Nav1.1 current amplification rate (%)” value in assay [2] (setting [6]) is recorded as 276%.
For the compound `COc1cc(C2=CCC(C(F)(F)F)CC2)nn(CC(=O)Nc2ccc3ocnc3c2)c1=O` (centres unmarked) [Example 447], the “Nav1.5 current amplification rate (%)” value in assay [1] (setting [5]) was found to be 6%. The “Nav1.1 current amplification rate (%)” value in assay [2] (setting [6]) came out at 148%.
In the case of `O=C(Cn1nc(-c2ccc(C(F)(F)F)nc2)ccc1=O)Nc1ccc2ocnc2c1` [Example 453], the “Nav1.5 current amplification rate (%)” value in assay [1] (setting [5]) came to 1%. Besides, the “Nav1.1 current amplification rate (%)” value in assay [2] (setting [6]) came out at 15%.
